Measurements reported in publication PMC11314199, “Design, Synthesis, and Biological Evaluations of Novel Thiazolo[4,5-d]pyrimidine Corticotropin Releasing Factor (CRF) Receptor Antagonists as Potential Treatments for Stress Related Disorders and Congenital Adrenal Hyperplasia (CAH)” (Molecules, 2024).
pIC50: −log10 of the molar value. Read-outs that look alike come from different tables or passages of the source.

Columns and labels:
CRF1R = system: CRF1R; parameters: method as in PMID 7846062; settings: cited from earlier work
human CRF1 receptors [1] = molecular target: T1, human CRF1 receptors (Homo sapiens, UniProt P34998); assay: Competition binding of [125I]-Tyr0 sauvagine under equilibrium conditions (secondary assay); settings: [125I]-Tyr0 sauvagine competition, HEK 293 membranes expressing CRF1 receptors; for pIC50: read-out: IC50
T1 construct: expressed in transfected cells
T1 sequence (P34998 24-415): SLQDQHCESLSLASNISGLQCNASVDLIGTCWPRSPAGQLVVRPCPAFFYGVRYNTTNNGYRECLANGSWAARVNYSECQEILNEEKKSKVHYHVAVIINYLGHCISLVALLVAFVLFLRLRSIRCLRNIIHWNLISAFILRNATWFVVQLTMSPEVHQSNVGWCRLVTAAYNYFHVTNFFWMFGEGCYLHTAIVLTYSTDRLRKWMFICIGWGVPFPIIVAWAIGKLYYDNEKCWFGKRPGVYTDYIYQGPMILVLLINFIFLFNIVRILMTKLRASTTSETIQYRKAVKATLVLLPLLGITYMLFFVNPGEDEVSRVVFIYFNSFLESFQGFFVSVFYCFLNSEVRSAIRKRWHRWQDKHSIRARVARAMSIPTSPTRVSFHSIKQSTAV
Procedure: In the second assay, the inhibitory effects measured by the lead compounds were compared to those of the standard drug antalarmin.
Figure 6 Competitive binding isotherms of compounds 2, 5, and 14 (a), compounds 10 and 23 (b), compounds 19 and 20 (c) and 21 and 22 (d) to human CRF1 receptors. Antalarmin was used as a standard drug.
In this competitive binding assay, different and increasing concentrations of the test compounds were used. The final volume of the tubes was adjusted to 0.2 mL using buffer B (the composition mentioned earlier). The test mixtures were then incubated at a temperature of 21 °C for a period of two hours. Then it was filtered through presoaked Whatman 934AH filter papers (in a solution of 0.3% polyethylene imine for 1 h at a temperature of 4 °C). The filter papers were then washed with a solution of 0.5 mL of ice-cold PBS containing 0.01% Triton X-100, and the washing process was repeated three times at pH 7.1. To measure the radioactivity, a gamma radiation counter was utilized. The quantity of membranes used was adjusted to make sure that the specific binding is always equal to or less than 10% of the total concentration of the added radiolabeled sauvagine. The specific [^125I]-Tyr^0-sauvagine binding was defined as the total binding minus the non-specific binding in the presence of 1000 nM of the standard antagonist Antalarmin. Non-linear regression analysis was used for data analysis, and Log IC50 values for the test compounds in comparison to the standard antagonist antalarmin were calculated by fitting the data from the competition studies into a one-site competition model. The statistical analysis was performed using Prism 4.0 (GraphPad Software, San Diego, CA, USA).
Statistical analysis was performed using Prism 4.0 (Graph Pad Software, San Diego, CA, USA). Non-linear regression analysis was used in the competitive binding studies. Log IC50 values were calculated by fitting the data from the competition studies to a one-site competition model.

human CRF1 receptors [2] = molecular target: T1, human CRF1 receptors; assay: Primary screening: inhibition of specific [125I]-Tyr0 sauvagine binding at a single concentration of 100 nM; settings: 100 nM test compound; membranes from HEK 293 cells stably expressing CRF1 receptors
Procedure: An investigation of the specific binding was carried out in membrane homogenates extracted from human embryonic kidney (HEK 293) cells stably expressing CRF1 receptors, a standard methodology previously detailed in several of our published works. This experimental approach closely adheres to the original Gkountelias et al. procedure.
The CRF1 receptor binding affinities for final target compounds 1–23 were evaluated. First, the ability of the entire test compounds to inhibit the specific binding of the radiolabelled ligand [^125I]-Tyr^0 sauvagine to membranes from HEK 293 cells stably expressing the CRF1 receptors was evaluated at a single concentration of 100 nM.
Figure 5 % inhibition of [^125I]-Try^0 sauvagine-specific binding by 100 nM of test compounds on membranes from HEK293 stably expressing human CRF1 receptors. In the absence of the test compound, the inhibition is 0%.
In this protocol, a radiolabeled agonist, which is [^125I]-Tyr^0-sauvagine is used. The cell culture medium that was used to grow these cells consisted of DMEM/F12 (1:1) supplemented with 10% bovine calf serum, 3.15 g/L glucose, and […] of the antibiotic geneticin. The cells were then incubated at a temperature of 37 °C with 5% CO2. After a suitable time was given to grow the expected number of cells to the required cell density, the cells were washed with phosphate-buffered saline (PBS) at a neutral pH of 7.2–7.3. This was followed by treatment with 2 mM EDTA containing PBS (PBS/EDTA). The suspension of cells was pitted under centrifugation at a speed of 1000× g for a period of 5 min, after which the resulting pellets were allowed to be homogenized in 1.5 mL of buffer H with the following composition: 20 mM HEPES, 10 mM MgCl2, 2 mM EGTA, 0.2 mg/mL bacitracin antibiotic, and 0.93 mg/mL aprotinin at pH 7.2 at 4 °C. The homogenizer used was a Janke & Kunkel IKA Ultra Turrax T25 homogenizer (IKA Werke GmbH & Co. KG, Staufen, Germany). The homogenates were then put into a centrifuge to be centrifuged at a speed of 16,000× g, for a period of 10 min, at 4 °C. The resulting membrane pellets were again suspended in a homogenizer in 1 mL of buffer B, which is buffer H containing BSA (0.1%) at a pH of 7.2 at 20 °C. After that, the membrane suspensions were diluted using buffer B and 50 μL aliquots of the suspensions and 20–25 pM of the radiolabeled ligand [^125I]-Tyr^0sauvagine with (test) and then without (positive control) the compounds to be evaluated at a single concentration of 100 nM.

Compound | binding affinity to CRF1R relative to binding to CRF2R (CRF1R) | pIC50 (human CRF1 receptors [1]) | inhibition at 0.1 µM (human CRF1 receptors [2]) [%] | % inhibition of [125I]-Tyr0 sauvagine-specific binding (human CRF1 receptors [2]) | IC50 (human CRF1 receptors [1]; Log IC50 as printed (negative sign), read-out: Log IC50 ± SE (converted)) [nM]
Corticotropin-releasing factor [CRF] | almost eight times higher |  |  |  | 
CCCCN(CC)c1nc(C)nc2c1sc(=NC)n2-c1ccc(C)cc1C [Compound 14, 7-(N-Butyl-N-ethylamino)-2-(methylimino)-5-methyl-3-(2,4-dimethylphenyl)-2,3-dihydrothiazolo[4,5-d]pyrimidine] |  | 6.84 | > 50 |  | 
CCCC(CCC)Nc1nc(C)nc2c1sc(=NC)n2-c1ccc(C)cc1C [Compound 19, 7-(N-Heptan-4-yl)amino-2-(methylimino)-5-methyl-3-(2,4-dimethylphenyl)-2,3-dihydrothiazolo[4,5-d]pyrimidine] |  | 7.39 | > 50 |  | 
CCCCCN(CCCCC)c1nc(C)nc2c1sc(=NC)n2-c1ccc(C(C)C)cc1Br [Compound 11, 7-(N,N-Dipentylamino)-2-(methylimino)-5-methyl-3-(2-bromo-4-isopropylphenyl)-2,3-dihydrothiazolo[4,5-d]pyrimidine] |  |  |  | reduced activity compared to compounds 10 and 13 | 
CCCN(CCC)c1nc(C)nc2c1sc(=NC)n2-c1ccc(OC)cc1C [Compound 21, 7-(N,N-Dipropylamino)-2-(methylimino)-5-methyl-3-(2-methyl-4-methoxylphenyl)-2,3-dihydrothiazolo[4,5-d]pyrimidine] |  | 7.88 | > 50 |  | 
CCC(CC)Nc1nc(C)nc2c1sc(=NC)n2-c1ccc(OC)cc1C [Compound 23, 7-(N-Pentan-3-yl)amino-2-(methylimino)-5-methyl-3-(2-methyl-4-methoxylphenyl)-2,3-dihydrothiazolo[4,5-d]pyrimidine] |  | 6.95 | > 50 |  | 
CCCCN(CC)c1nc(C)nc2c1sc(=NC)n2-c1ccc(OC)cc1C [Compound 20, 7-(N-Butyl-N-ethylamino)-2-(methylimino)-5-methyl-3-(2-methyl-4-methoxylphenyl)-2,3-dihydrothiazolo[4,5-d]pyrimidine] |  | 8.04 | > 50 |  | 
CCCN(CC1CC1)c1nc(C)nc2c1s/c(=N\C)n2-c1ccc(OC)cc1C [Compound 22, 7-(N-Propyl-N-(cyclopropylmethyl))amino-2-(methylimino)-5-methyl-3-(2-methyl-4-methoxylphenyl)-2,3-dihydrothiazolo[4,5-d]pyrimidine] |  | 7.04 | > 50 | significantly higher inhibitory effects than compounds 9 and 17 | 
CN=c1sc2c(N(CCOC)CCOC)nc(C)nc2n1-c1ccc(C(C)C)cc1Br [Compound 10, 7-(N,N-Bis(2-methoxyethyl)amino)-2-(methylimino)-5-methyl-3-(2-bromo-4-isopropylphenyl)-2,3-dihydrothiazolo[4,5-d]pyrimidine] |  | 7.51 | > 50 |  | 
CCCCN(CC)c1nc(C)nc2c1c(C)c(C)n2-c1c(C)cc(C)cc1C [antalarmin, reference compound] |  | 7.78 |  |  | 
CCCN(CCC)c1nc(C)nc2c1sc(=NC)n2-c1ccc(Cl)cc1Cl [Compound 2, 7-(N,N-Dipropylamino)-2-(methylimino)-5-methyl-3-(2,4-dichlorophenyl)-2,3-dihydrothiazolo[4,5-d]pyrimidine] |  | 8.21 | > 50 |  | 6.03
CCCN(CC1CC1)c1nc(C)nc2c1s/c(=N\C)n2-c1ccc(Cl)cc1Cl [Compound 5, 7-(N-Propyl-N-(cyclopropylmethyl))amino-2-(methylimino)-5-methyl-3-(2,4-dichlorophenyl)-2,3-dihydrothiazolo[4,5-d]pyrimidine] |  | 7.95 | > 50 | significantly higher inhibitory effects than compounds 9 and 17 | 
